Experiments:
[1] = test system: NLRP3 inflammasome; assay: IL-1β release in THP-1 cells after nigericin stimulation; format: cell-based, human; conditions: dTAG 1 μM
Experimental: B, establishment of a THP-1 F10-FKBP cell line with degradable DARPin F10. Immunoblotting with lysates of THP-1 F10-FKBP cells treated at the indicated concentration with dTAG (for 6 h). […] The membrane was probed with antibodies against actin as loading control and F10 (HA-F10-FKBP ^F36V, detected with anti-HA). C, IL-1β release under various treatments in THP-1 F10-FKBP cells at 3 h post-nigericin stimulation. Cells were treated as indicated in the scheme at the top. […] One-way ANOVA test was applied for statistical analysis. ∗∗∗∗p <0.0001. […] D, IL-1β release from 0 h to 3.5 h after nigericin treatment in THP-1 or THP-1-F10-FKBP cells. Experimental set-up was as in (B) and IL-1β concentration was monitored at timepoint 0, 0.5, 1.5, and 3.5 h post nigericin treatment. Two-way ANOVA tests were applied, and comparison was performed within each timepoint between with and without dTAG group. ∗∗p< 0.01. Experimental setup as in (C).
Human IL-1β and IL-18 were determined with Cisbio HTRF Cisbio Human IL1β (#62HIL1BPET) and Human IL18 (#62HIL18PEG) protocols. All the data were from 3 or 4 independent biological replicates.
For BMDM cells, 1.5 × 10^6 cells per well were seeded in six-well plates. After priming with 1 μg/ml LPS (Invivogen #tlrl-b5lps), cells were challenged with 200 μg/ml MSU crystals (Invivogen #tlrl-msu-25) for 6 h or 20 μM nigericin (Sigma-Aldrich #N7143-5MG) for 30 min. […]

[2] = target: T1, HA-F10-FKBP F36V (Homo sapiens, UniProt P62942, F37V); assay: dTAG-induced degradation of DARPin F10-FKBPF36V in THP-1 cells (immunoblot); format: cell-based; conditions: F10-FKBPF36V THP-1 cells, within 6 h of dTAG addition
T1 construct: expressed in transfected cells; host or cells: THP-1, lentiviral transduction, single-cell clone
T1 sequence (P62942 2-108 F37V limits assumed): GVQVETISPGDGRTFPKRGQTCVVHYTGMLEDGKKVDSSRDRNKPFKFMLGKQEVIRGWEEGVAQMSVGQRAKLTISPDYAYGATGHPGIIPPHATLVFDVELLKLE
T1 sequence (Q96SW2 whole entry, further chain): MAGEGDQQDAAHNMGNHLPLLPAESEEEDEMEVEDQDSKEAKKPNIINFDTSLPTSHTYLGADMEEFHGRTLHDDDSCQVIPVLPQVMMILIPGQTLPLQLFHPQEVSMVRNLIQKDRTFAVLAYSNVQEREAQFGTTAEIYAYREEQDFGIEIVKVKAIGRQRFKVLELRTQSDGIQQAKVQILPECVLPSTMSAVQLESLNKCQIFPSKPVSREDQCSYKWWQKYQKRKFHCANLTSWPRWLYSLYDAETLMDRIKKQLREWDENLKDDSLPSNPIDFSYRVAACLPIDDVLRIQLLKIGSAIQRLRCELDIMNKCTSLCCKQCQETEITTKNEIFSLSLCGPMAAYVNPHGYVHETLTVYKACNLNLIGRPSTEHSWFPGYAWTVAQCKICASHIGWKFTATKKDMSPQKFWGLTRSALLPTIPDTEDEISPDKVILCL
Experimental: B, establishment of a THP-1 F10-FKBP cell line with degradable DARPin F10. Immunoblotting with lysates of THP-1 F10-FKBP cells treated at the indicated concentration with dTAG (for 6 h). […] The membrane was probed with antibodies against actin as loading control and F10 (HA-F10-FKBP ^F36V, detected with anti-HA).
The membrane was blocked with 5% milk-TBS, and then incubated with primary antibodies overnight at 4 °C. The signal was developed with HRP-conjugated secondary antibodies and Amersham ECL Western Blotting Detection Reagent (Cytiva#RPN2106).

[3] = target: T2, HDAC6 (Homo sapiens, UniProt Q9UBN7); set-up: endogenous in cells; method as in PMID 37481141; conditions: THP-1 cells; cited from earlier work
T2 sequence (Q9UBN7 1-1215): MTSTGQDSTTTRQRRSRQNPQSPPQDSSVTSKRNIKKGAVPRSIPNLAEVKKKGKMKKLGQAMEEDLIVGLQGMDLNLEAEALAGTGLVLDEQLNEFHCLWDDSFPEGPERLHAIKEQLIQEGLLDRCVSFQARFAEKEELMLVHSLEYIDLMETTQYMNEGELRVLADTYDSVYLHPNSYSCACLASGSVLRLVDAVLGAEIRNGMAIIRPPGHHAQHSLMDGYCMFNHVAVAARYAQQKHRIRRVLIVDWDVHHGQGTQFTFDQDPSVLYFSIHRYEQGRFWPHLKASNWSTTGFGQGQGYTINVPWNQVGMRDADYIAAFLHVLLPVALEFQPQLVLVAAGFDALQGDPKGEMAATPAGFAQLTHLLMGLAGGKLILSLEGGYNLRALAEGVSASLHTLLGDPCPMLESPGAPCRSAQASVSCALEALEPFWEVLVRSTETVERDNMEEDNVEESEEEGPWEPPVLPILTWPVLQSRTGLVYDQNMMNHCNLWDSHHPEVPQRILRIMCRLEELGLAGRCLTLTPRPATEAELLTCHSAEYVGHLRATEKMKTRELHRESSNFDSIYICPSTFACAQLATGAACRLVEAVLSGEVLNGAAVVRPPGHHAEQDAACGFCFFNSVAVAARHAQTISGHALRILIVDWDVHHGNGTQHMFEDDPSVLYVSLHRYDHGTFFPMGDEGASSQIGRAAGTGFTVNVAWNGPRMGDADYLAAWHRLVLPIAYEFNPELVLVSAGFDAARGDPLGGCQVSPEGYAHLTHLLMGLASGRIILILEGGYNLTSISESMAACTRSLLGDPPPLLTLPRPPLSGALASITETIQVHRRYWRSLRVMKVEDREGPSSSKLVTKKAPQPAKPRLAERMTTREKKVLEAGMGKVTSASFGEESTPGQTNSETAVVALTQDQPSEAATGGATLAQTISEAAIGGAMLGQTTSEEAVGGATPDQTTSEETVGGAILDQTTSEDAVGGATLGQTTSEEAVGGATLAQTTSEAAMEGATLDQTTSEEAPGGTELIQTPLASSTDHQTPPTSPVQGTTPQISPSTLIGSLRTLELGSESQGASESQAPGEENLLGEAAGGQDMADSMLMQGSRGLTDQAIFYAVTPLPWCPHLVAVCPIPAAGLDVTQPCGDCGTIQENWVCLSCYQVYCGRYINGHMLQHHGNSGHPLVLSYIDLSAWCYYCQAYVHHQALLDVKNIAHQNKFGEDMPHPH

[4] = target: T2, HDAC6; set-up: method as in PMID 26471297; conditions: BMDMs; cited from earlier work

Compound	IL-1β release ([1]; F10-FKBPF36V THP-1 cells, PMA 0.5 μM, nigericin 15 μM, compared to WT THP-1)	IL-1β release ([1]; parental WT THP-1, PMA 0.5 μM 3 h, nigericin 15 μM 3 h, MCC950 10 μM)	degradation of DARPin F10 [2]	IL-1β release [3]	mIL-1β level [4]
CC[C@H](C(=O)N1CCCC[C@H]1C(=O)O[C@H](CCc1ccc(OC)c(OC)c1)c1ccccc1OCC(=O)NCCCCCCOc1cccc2c1C(=O)N(C1CCC(=O)NC1=O)C2=O)c1cc(OC)c(OC)c(OC)c1 (some centres unmarked) [dTAG]	partial, but significant, recovery	comparable	efficiently degraded	–	–
CN1CCc2c(c3ccccc3n2Cc2ccc(C(=O)NO)cc2)C1 [Tubastatin A]	–	–	–	reduced IL-1β release	did not impact the mIL-1β level

Reference: paper PMC10850954, “HDAC6/aggresome processing pathway importance for inflammasome formation is context-dependent” (The Journal of Biological Chemistry, 2024)
